Laboratory results published in patent publication US6391919B1, “Bis-amino acid sulfonamides containing substituted benzyl amines HIV protease inhibitors” (Bristol-Myers Squibb Pharma Company, priority 2000, dated 2002).
Values after ≈ are worked out from the molar mass of the structure shown.

System: HIV-1 (RF)
Test: HIV RNA assay: microplate based compound evaluation in HIV-1 infected MT-2 cells
Format: cell-based
Conditions: Human immunodeficiency virus 1, MT2, 72 h; HIV-1 (RF) infected MT-2 cells, 3 days of culture; virus dilutions selected to standardize the inoculum to this value; read-out: IC90 value (concentration of compound required to reduce the HIV RNA level by 90%)
Method: Plasmid pDAB 72 containing both gag and pol sequences of BH 10 (bp 113-1816) cloned into PTZ 19R was prepared according to Erickson-Viitanen et al. AIDS Research and Human Retroviruses 1989, 5, 577. The plasmid was linearized with Bam HI prior to the generation of in vitro RNA transcripts using the Riboprobe Gemini system 11 kit (Promega) with T7 RNA polymerase. Synthesized RNA was purified by treatment with RNase free DNAse (Promega), phenol-chloroform extraction, and ethanol precipitation. RNA transcripts were dissolved in water, and stored at −70° C. The concentration of RNA was determined from the A260.
Biotinylated capture probes were purified by HPLC after synthesis on an Applied Biosystems (Foster City, Calif.) DNA synthesizer by addition of biotin to the 5′ terminal end of the oligonucleotide, using the biotin-phosphoramidite reagent of Cocuzza, Tet. Lett. 1989, 30, 6287. […]
MT-2 and MTA cells were maintained in RPM 1640 supplemented with 5% fetal calf serum (FCS) for MT-2 cells or 10% FCS for MTA cells, 2 mM L-glutamine and 50 μg/mL gentamycin, all from Gibco. […] Infectious titers of HIV-1 (RF) stocks were 1-3×10^7 PFU (plaque forming units)/mL as measured by plaque assay on MT-2 cells (see below). […]

IC90: 0.2 µg/mL (≈ 0.947 µM)
SMILES: Nc1ccn([C@H]2CC[C@@H](CO)O2)c(=O)n1 [ddC, dideoxycytidine]
